Test results reported in patent publication US8088818B2, “Catechol-based derivatives for treating or preventing diabetics” (National Taiwan University, priority 2006, dated 2012).

Assays:
Normal rats = test: Blood sugar lowering in normal rats after oral administration; assay type: in vivo, rat; conditions: 0.5 mg/kg oral; for % decrease in plasma glucose: Table 14; for Pre-treatment Plasma glucose: pre-treatment (baseline)
Procedure: (a) Male Wistar rats are provided from the National Laboratory Animal Breeding and Research Center (Taipei, Taiwan), each of whose weight is about 200-250 grams, and the average age thereof is above 8 weeks. They were housed under conditions of constant temperature (25±1[…]) and controlled illumination (light time and dark time are respectively 12 hours). Food and water were available.
(§1) (d) The administration: Dissolve the medicine equivalently in deionized water, and then administrate the mentioned solution into the normal and diabetic rats by an orally perfusion. Keep with the desired concentration of the perfusion amount by taking suitable amount of the medicine solution according to the weight of the different animal.
(§2) The rats to be experimented should undergo a starvation for 8-12 hours overnight. Next day, the rats are anesthetized with 30 mg/kg pentobarbital by injecting into the abdominal cavity. After the rats fall asleep, fix the rats on the board with the rubber band. Open the groin, find the veins, bleed 0.1 ml blood from an empty stomach, and then feed the medicine into the body of the rats by taking orally. After 90 minutes, bleed and perform a centrifugation (13,000 rpm, 5 minutes) to separate the serum and the plasma. Take the 10 μl supernatant of the serum and add 1 ml reagent of the glucose kit thereinto by gently mixing. React for 5 minutes at 37 °C, followed by detecting the value of the blood sugar by means of BST330 based on the different absorption level. […] The value of the blood sugar (mg/dL) is calculated by comparing the level of redness with contrasting the standard curve.
(§3) (The value of blood sugar at postadministration)−(The value of blood sugar at preadministration)/(The value of blood sugar at preadministration)×100%
The results of the experiments are presented in the average value±the standard error (mean±SE), and the variations therebetween are evaluated according to the Student's t-test, while the variations thereamong are evaluated according to one-way ANOVA and Bonferroni's t-test, wherein P<0.05 is deemed to have apparent differences.

Type 2 diabetic rats = test: Blood sugar lowering in insulin-induced type 2 diabetic rats after oral administration; assay type: in vivo, rat; conditions: type II diabetic rats, 1 mg/kg, p.o., 90 minutes
Procedure: (c) Insulin-induced type 2 diabetic rats: the abdominal cavity of the male Wistar rats of 12 weeks age are injected with 0.5 IU/kg long-term insulin (MonotardR HM) three times a day for fourteen days. Then, the 10 mg/kg tolbutamide, an anti-diabetic drug of sulfonylurea class, is injected into the abdominal cavity. Phlebotomize 0.1 ml blood respectively at the preadministration and the postadministration of sixty minutes, and calculate the reduced value of the blood sugar. If the variation of the ability of lowering blood sugar is less than 10%, which is deemed as the type II (insulin resistance) diabetes rat.
as §1, §2, §3

coronary artery = test: Flow rate of the coronary artery in the isolated perfused rat heart (Langendorff); conditions: for effect on coronary flow rate (in words): Wistar rats, Tables 15 and 16; for coronary flow: isolated Wistar rat heart
Procedure: Each of the male Wistar rats weighs about 200-250 grams, and is anesthetized with 25 mg/kg pentobarbital and 16 mg/kg heparin by injecting into the abdominal cavity. After falling asleep, separate the cervical vertebra and immediately take the heart out hanging on the constant pouring pressure circulation instrument (Langendorff, AD Instruments Pty Ltd, ML870B2) and fill a 37[…] pouring solution of 95% of oxygen and 5% of carbon dioxide with the artery (119.7 mM NaCl, 23.8 mM NaHCO3, 5.6 mM glucose, 1.2 mM CaCl2, 1.1 mM MgCl2, 0.3 mM NaH2PO4, and 5.0 mM KCl), which washes the heart and clean out the blood water by pouring in a reverse direction. The rate of the reverse pouring is 10 ml/min, followed by maintaining the pouring pressure of the coronary artery at 80 mmHg. After balancing for thirty minutes, measure the rate of the pouring solution flowing in the heart, and observe the change of the rate the pouring solution flowing in the heart while the testing drug is added.

[1] = literature; cited from earlier work

For `O=C(C=Cc1ccc(O)c(O)c1)NCCc1ccc(Br)cc1` [638 B], the “% decrease in plasma glucose” value (Normal rats) was 21.4 ± 3.0 %, the “Post-treatment Plasma glucose” value (Normal rats) was 76.8 ± 4.1 mg/dL and the “Pre-treatment Plasma glucose” value (Normal rats) was 98.1 ± 5.2 mg/dL.
With `CN(CCOc1ccc(CC2SC(=O)NC2=O)cc1)c1ccccn1` (centres unmarked) [Rosiglitazone, reference compound] the “% decrease in plasma glucose” value (Type 2 diabetic rats) was 15.6 ± 6.3%.
For `CN(Cc1ccccc1)C(=O)C=Cc1ccc(O)c(O)c1` [Compound 642A], the “effect on coronary flow rate (in words)” value (coronary artery) was “capable of increasing the coronary flow rate”, the coronary flow (coronary artery; conc. 0 (baseline)) was 10.0 ± 0.7 mL/min and the coronary flow (coronary artery; conc. 0.1 (unit printed .[…]M)) was 12.9 ± 0.4 mL/min. The coronary flow (coronary artery; conc. 0.3 (unit printed .[…]M)) was 14.2 ± 0.8 mL/min, the coronary flow (coronary artery; conc. 1 (unit printed .[…]M)) was 16.8 ± 1.6 mL/min and the coronary flow (coronary artery; conc. 3 (unit printed .[…]M)) was 19.8 ± 2.1 mL/min.
For `O=C(O)/C=C/c1ccc(O)c(O)c1` [caffeic acid], the “lowering blood sugar (earlier studies)” value [1] is listed as “effective in lowering blood sugar”.
With `CN(CCc1ccccc1)C(=O)C=Cc1ccc(O)c(O)c1` [Compound 642B] the “effect on coronary flow rate (in words)” value (coronary artery) was “capable of increasing the coronary flow rate”, the coronary flow (coronary artery; conc. 0 (baseline)) was 9.8 ± 2.1 mL/min and the coronary flow (coronary artery; conc. 0.1 (unit printed .[…]M)) was 9.8 ± 2.1 mL/min. For the same compound, the coronary flow (coronary artery; conc. 0.3 (unit printed .[…]M)) was 10.4 ± 1.7 mL/min, the coronary flow (coronary artery; conc. 1 (unit printed .[…]M)) was 12.8 ± 1.9 mL/min and the coronary flow (coronary artery; conc. 3 (unit printed .[…]M)) was 17.4 ± 1.9 mL/min. For the same compound, the coronary flow (coronary artery; conc. 10 (unit printed .[…]M)) was 23.2 ± 1.7 mL/min.
With `O=C(C=Cc1ccc(O)c(O)c1)NCc1cccc(F)c1` [Compound 638I] the “effect on coronary flow rate (in words)” value (coronary artery) was “capable of increasing the coronary flow rate”, the coronary flow (coronary artery; conc. 0 (baseline)) was 7.4 ± 0.7 mL/min and the coronary flow (coronary artery; conc. 0.1 (unit printed .[…]M)) was 7.1 ± 0.5 mL/min. For the same compound, the coronary flow (coronary artery; conc. 0.3 (unit printed .[…]M)) was 7.1 ± 0.5 mL/min, the coronary flow (coronary artery; conc. 1 (unit printed .[…]M)) was 7.6 ± 0.8 mL/min and the coronary flow (coronary artery; conc. 3 (unit printed .[…]M)) was 8.2 ± 0.8 mL/min. For the same compound, the coronary flow (coronary artery; conc. 10 (unit printed .[…]M)) was 9.3 ± 0.7 mL/min.
`O=C(C=Cc1ccc(O)c(O)c1)Nc1ccc(O)cc1` [Compound 638H] gave a coronary flow (coronary artery; conc. 0 (baseline)) of 9.0 ± 0.3 mL/min, a coronary flow (coronary artery; conc. 0.1 (unit printed .[…]M)) of 9.0 ± 0.5 mL/min and a coronary flow (coronary artery; conc. 0.3 (unit printed .[…]M)) of 8.9 ± 0.5 mL/min. For the same compound, the coronary flow (coronary artery; conc. 1 (unit printed .[…]M)) was 9.1 ± 0.5 mL/min, the coronary flow (coronary artery; conc. 3 (unit printed .[…]M)) was 10.1 ± 0.7 mL/min and the coronary flow (coronary artery; conc. 10 (unit printed .[…]M)) was 13.1 ± 1.0 mL/min.
With `CC(=O)Oc1ccc(C=CC(=O)NCCc2ccccc2)cc1OC(C)=O` [639 B] the “% decrease in plasma glucose” value (Normal rats) was 28.1 ± 3.3 %, the “Post-treatment Plasma glucose” value (Normal rats) was 84.0 ± 5.0 mg/dL and the “Pre-treatment Plasma glucose” value (Normal rats) was 116.7 ± 2.8 mg/dL. The “effect on coronary flow rate (in words)” value (coronary artery) was “capable of increasing the coronary flow rate”, the coronary flow (coronary artery; conc. 0 (baseline)) was 7.4 ± 0.2 mL/min and the coronary flow (coronary artery; conc. 1 (unit printed .[…]M)) was 9.0 ± 0.4 mL/min. For the same compound, the coronary flow (coronary artery; conc. 3 (unit printed .[…]M)) was 11.6 ± 0.6 mL/min.
In the case of `O=C(/C=C/c1ccc2c(c1)OCO2)NCCc1ccccc1` [615 (37)], the “% decrease in plasma glucose” value (Normal rats) is reported as 23.9 ± 2.1 %, the “Post-treatment Plasma glucose” value (Normal rats) is reported as 105.2 ± 3.5 mg/dL and the “Pre-treatment Plasma glucose” value (Normal rats) is reported as 138.3 ± 4.1 mg/dL.
For `COc1cc(CNC(=O)CCCC/C=C/C(C)C)ccc1O` [capsaicin], the “lowering blood sugar (earlier studies)” value [1] is listed as “effective in lowering blood sugar”.
In the case of `COc1cc(/C=C/C(=O)NCCc2ccccc2)ccc1O` [Compound 640], the “effect on coronary flow rate (in words)” value (coronary artery) is reported as “capable of increasing the coronary flow rate”, the coronary flow (coronary artery; conc. 0 (baseline)) is reported as 9.7 ± 1.3 mL/min and the coronary flow (coronary artery; conc. 0.1 (unit printed .[…]M)) is reported as 10.1 ± 1.5 mL/min. It also gave a coronary flow (coronary artery; conc. 0.3 (unit printed .[…]M)) of 10.2 ± 1.4 mL/min, a coronary flow (coronary artery; conc. 1 (unit printed .[…]M)) of 10.3 ± 1.5 mL/min and a coronary flow (coronary artery; conc. 3 (unit printed .[…]M)) of 11.0 ± 1.5 mL/min. The coronary flow (coronary artery; conc. 10 (unit printed .[…]M)) was 14.6 ± 2.2 mL/min.
Compound `CCCCNC(=O)C=Cc1ccc2c(c1)OCO2` has a melting point of 82 to 83 °C.
With `COc1ccc(CCNC(=O)C=Cc2ccc(O)c(O)c2)cc1OC` [638 A] the “% decrease in plasma glucose” value (Normal rats) was 18.1 ± 2.9%, the “Post-treatment Plasma glucose” value (Normal rats) was 83.6 ± 1.9 mg/dL and the “Pre-treatment Plasma glucose” value (Normal rats) was 102.5 ± 2.4 mg/dL.
